Measurements published in PubChem BioAssay (NCI).
Where “and” joins values, the source holds several entries; their conditions need not be identical. Equal values may be shown once.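 How tested: cells in 96-well plates exposed to compound for 48 hours at five concentrations. Abbreviation: GI50, concentration required for 50% inhibition of growth. The concentration for full growth arrest is given as TGI.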 Where a SMILES comes first, the peptide text is derived from it. [ ]: non-standard residue; d: D form. Phe(F5) = N[CH](Cc1c(F)c(F)c(F)c(F)c1F)C(=O)O

Legend:
Experiment in all cases: NCI-60 cell line screen, 48 h
A549 NSCLC = tested on: A549 NSCLC
CCRF-CEM leukemia = tested on: CCRF-CEM leukemia
HCT-116 colon = tested on: HCT-116 colon
HL-60(TB) leukemia = tested on: HL-60(TB) leukemia
K-562 leukemia = tested on: K-562 leukemia
LOX IMVI melanoma = tested on: LOX IMVI melanoma
MOLT-4 leukemia = tested on: MOLT-4 leukemia
NCI-H23 lung = tested on: NCI-H23 lung
PC-3 prostate = tested on: PC-3 prostate
SK-MEL-2 melanoma = tested on: SK-MEL-2 melanoma

Work on `COc1cc(Cn2cc3c(c2)-c2oncc2CC3)cc(OC)c1OC` yielded a GI50 (A549 NSCLC) of 0.0509 µM, a TGI (A549 NSCLC) of over 100 µM and a GI50 (CCRF-CEM leukemia) of 0.0193 µM. For the same molecule, the TGI (CCRF-CEM leukemia) was 16.7 µM, the GI50 (HCT-116 colon) was 0.0379 µM and the TGI (HCT-116 colon) was over 100 µM. The GI50 (HL-60(TB) leukemia) was under 0.0177 µM, the TGI (HL-60(TB) leukemia) was 0.456 µM and the GI50 (K-562 leukemia) was under 0.0183 µM. For the same molecule, the TGI (K-562 leukemia) was over 34.7 µM, the GI50 (LOX IMVI melanoma) was 0.0716 µM and the TGI (LOX IMVI melanoma) was over 100 µM. It also gave a GI50 (MOLT-4 leukemia) of 0.0338 µM, a TGI (MOLT-4 leukemia) of 13.1 µM and a GI50 (NCI-H23 lung) of 0.048 µM. For the same molecule, the TGI (NCI-H23 lung) was over 69.7 µM, the GI50 (PC-3 prostate) was 0.0526 µM and the TGI (PC-3 prostate) was over 100 µM. It also gave a GI50 (SK-MEL-2 melanoma) of 7.2 µM and a TGI (SK-MEL-2 melanoma) of 79.3 µM.

`COC(=O)C(CC(C)C)NC(=O)C(Cc1cnc[nH]1)NC(=O)CNC(=O)C(NC(=O)C(C)NC(=O)C(Cc1c[nH]c2ccccc12)NC(=O)C(CCC(=O)O)NC(=O)C(N)Cc1c(F)c(F)c(F)c(F)c1F)C(C)C` (stereo unspecified) (H-[Phe(F5)]EWAVGHL-OMe; configuration not given here) was tested, and the GI50 (A549 NSCLC) was over 100 µM, the TGI (A549 NSCLC) was over 100 µM and the GI50 (CCRF-CEM leukemia) was over 100 µM. It also gave a TGI (CCRF-CEM leukemia) of over 100 µM, a GI50 (HCT-116 colon) of over 100 µM and a TGI (HCT-116 colon) of over 100 µM. It also gave a GI50 (HL-60(TB) leukemia) of over 100 µM, a TGI (HL-60(TB) leukemia) of over 100 µM and a GI50 (K-562 leukemia) of over 100 µM. The TGI (K-562 leukemia) was over 100 µM, the TGI (LOX IMVI melanoma) was over 12.5 µM and the GI50 (MOLT-4 leukemia) was over 100 µM. The TGI (MOLT-4 leukemia) was over 100 µM, the GI50 (NCI-H23 lung) was over 100 µM and the TGI (NCI-H23 lung) was over 100 µM. For the same molecule, the TGI (PC-3 prostate) was over 12.5 µM, the GI50 (SK-MEL-2 melanoma) was over 100 µM and the TGI (SK-MEL-2 melanoma) was over 100 µM.

`O=C1C(Cl)=C(N/N=c2/[nH][nH]/c(=N/NC3=C(Cl)C(=O)c4ccccc4C3=O)c3ccccc23)C(=O)c2ccccc21` gave a GI50 (A549 NSCLC) of 21.9 µM, a TGI (A549 NSCLC) of 52.2 µM and a GI50 (CCRF-CEM leukemia) of 10 µM. The TGI (CCRF-CEM leukemia) was 56.7 µM, the GI50 (HCT-116 colon) was 14.3 µM and the TGI (HCT-116 colon) was 32.3 µM. It also gave a GI50 (HL-60(TB) leukemia) of 8.45 µM, a TGI (HL-60(TB) leukemia) of 34.2 µM and a GI50 (K-562 leukemia) of 3.23 µM. For the same molecule, the TGI (K-562 leukemia) was 13.9 µM, the GI50 (LOX IMVI melanoma) was 15.3 µM and the TGI (LOX IMVI melanoma) was 29.9 µM. The GI50 (MOLT-4 leukemia) was 4.9 µM, the TGI (MOLT-4 leukemia) was 34.6 µM and the GI50 (NCI-H23 lung) was 17.3 µM. It also gave a TGI (NCI-H23 lung) of 36.9 µM, a GI50 (PC-3 prostate) of 8.64 µM and a TGI (PC-3 prostate) of 28.7 µM. The GI50 (SK-MEL-2 melanoma) was 18.1 µM and the TGI (SK-MEL-2 melanoma) was 35.9 µM.

`COc1cccc(C2=C(c3cn(C)c4ccccc34)C(=O)NC2=O)c1` gave a GI50 (A549 NSCLC) of 10.8 µM, a TGI (A549 NSCLC) of over 25 µM and a GI50 (CCRF-CEM leukemia) of 9.01 µM. The TGI (CCRF-CEM leukemia) was over 25 µM, the GI50 (HCT-116 colon) was 7.26 µM and the TGI (HCT-116 colon) was over 25 µM. For the same molecule, the GI50 (HL-60(TB) leukemia) was 11.2 µM, the TGI (HL-60(TB) leukemia) was over 25 µM and the GI50 (K-562 leukemia) was 7.93 µM. For the same molecule, the TGI (K-562 leukemia) was over 25 µM, the GI50 (LOX IMVI melanoma) was 13 µM and the TGI (LOX IMVI melanoma) was over 25 µM. It also gave a GI50 (MOLT-4 leukemia) of 8.54 µM, a TGI (MOLT-4 leukemia) of over 25 µM and a GI50 (NCI-H23 lung) of 13.9 µM. For the same molecule, the TGI (NCI-H23 lung) was over 25 µM, the GI50 (PC-3 prostate) was 10.2 µM and the TGI (PC-3 prostate) was over 25 µM. For the same molecule, the GI50 (SK-MEL-2 melanoma) was 8.79 µM and the TGI (SK-MEL-2 melanoma) was over 25 µM.

`N=C(N)c1nn(C2OC(CO)C(O)C2O)c2nc[nH]c(=O)c12` (stereo unspecified) was tested, and the GI50 (A549 NSCLC) was 0.659 µM, the TGI (A549 NSCLC) was 13.4 µM and the GI50 (CCRF-CEM leukemia) was 0.434 µM. The GI50 (HCT-116 colon) was 0.347 µM, the TGI (HCT-116 colon) was 1.29 µM and the GI50 (HL-60(TB) leukemia) was 0.207 µM. For the same molecule, the TGI (HL-60(TB) leukemia) was 0.538 µM, the GI50 (K-562 leukemia) was 0.367 µM and the TGI (K-562 leukemia) was 3.63 µM. The GI50 (LOX IMVI melanoma) was 0.337 µM, the TGI (LOX IMVI melanoma) was 1.84 µM and the GI50 (MOLT-4 leukemia) was 0.491 µM. For the same molecule, the TGI (MOLT-4 leukemia) was 4.12 µM, the GI50 (NCI-H23 lung) was 0.727 µM and the TGI (NCI-H23 lung) was 3.63 µM. The GI50 (PC-3 prostate) was 0.788 µM, the TGI (PC-3 prostate) was 6.74 µM and the GI50 (SK-MEL-2 melanoma) was 0.19 µM. The TGI (SK-MEL-2 melanoma) was 0.663 µM.

`O=C(O)CS(=O)(=O)C(c1ccccc1)c1ccccc1` gave a TGI (A549 NSCLC) of over 100 µM, a TGI (CCRF-CEM leukemia) of over 100 µM and a TGI (HCT-116 colon) of over 100 µM. The TGI (HL-60(TB) leukemia) was over 100 µM, the TGI (K-562 leukemia) was over 100 µM and the TGI (LOX IMVI melanoma) was over 100 µM. It also gave a TGI (MOLT-4 leukemia) of over 100 µM, a TGI (NCI-H23 lung) of over 100 µM and a TGI (PC-3 prostate) of over 100 µM. The TGI (SK-MEL-2 melanoma) was over 100 µM.

`N#CC(C#N)=Cc1ccc(-c2ccc(-c3nc4ccccc4s3)cc2)o1` showed a GI50 (A549 NSCLC) of 14.3 µM, a TGI (A549 NSCLC) of 38.5 µM and a GI50 (CCRF-CEM leukemia) of 4.15 µM. The TGI (CCRF-CEM leukemia) was 70.6 µM, the GI50 (HCT-116 colon) was 5.11 µM and the TGI (HCT-116 colon) was 24.9 µM. For the same molecule, the GI50 (HL-60(TB) leukemia) was 37.4 µM, the TGI (HL-60(TB) leukemia) was over 100 µM and the GI50 (K-562 leukemia) was 27.4 µM. It also gave a TGI (K-562 leukemia) of over 100 µM, a GI50 (LOX IMVI melanoma) of 15.1 µM and a TGI (LOX IMVI melanoma) of 30.3 µM. The GI50 (MOLT-4 leukemia) was 14 µM, the TGI (MOLT-4 leukemia) was over 100 µM and the GI50 (NCI-H23 lung) was 15.6 µM. It also gave a TGI (NCI-H23 lung) of 43.3 µM, a GI50 (PC-3 prostate) of 9.54 µM and a TGI (PC-3 prostate) of 22.5 µM. The GI50 (SK-MEL-2 melanoma) was 63.2 µM and the TGI (SK-MEL-2 melanoma) was over 100 µM.

Molecule `C=C(C)[C@@H]1CC[C@]2(C(=O)NCCCN)CC[C@]3(C)[C@H](CC[C@@H]4[C@@]5(C)CC[C@H](O)C(C)(C)[C@@H]5CC[C@]43C)[C@@H]12` has a GI50 (A549 NSCLC) of 19.6 µM, a TGI (A549 NSCLC) of 66.5 µM and a GI50 (CCRF-CEM leukemia) of 22.1 µM. The TGI (CCRF-CEM leukemia) was over 100 µM, the GI50 (HCT-116 colon) was 13.9 µM and the TGI (HCT-116 colon) was 62.4 µM. It also gave a GI50 (HL-60(TB) leukemia) of 16.5 µM, a TGI (HL-60(TB) leukemia) of 50.7 µM and a GI50 (K-562 leukemia) of 9.84 µM. For the same molecule, the TGI (K-562 leukemia) was 31.3 µM, the GI50 (LOX IMVI melanoma) was 25.5 µM and the TGI (LOX IMVI melanoma) was over 100 µM. The GI50 (MOLT-4 leukemia) was 12.9 µM, the TGI (MOLT-4 leukemia) was 52.8 µM and the GI50 (NCI-H23 lung) was 22.6 µM. For the same molecule, the TGI (NCI-H23 lung) was 87.1 µM, the GI50 (PC-3 prostate) was 12.6 µM and the TGI (PC-3 prostate) was 37.8 µM. The GI50 (SK-MEL-2 melanoma) was 27.3 µM and the TGI (SK-MEL-2 melanoma) was 85.8 µM.

For `CCc1ccc(NCc2cc(OC)c(OC)c(OC)c2)cc1`, the GI50 (A549 NSCLC) was 0.693 µM and 0.216 µM, the TGI (A549 NSCLC) was 98.2 µM and > 92.2 µM and the TGI (CCRF-CEM leukemia) was over 77.9 µM. For the same molecule, the TGI (HCT-116 colon) was 10.2 µM and 27.4 µM, the TGI (HL-60(TB) leukemia) was 7.94 µM and 5.38 µM and the GI50 (K-562 leukemia) was 0.111 µM. For the same molecule, the TGI (K-562 leukemia) was 26.4 µM and 52.4 µM, the GI50 (LOX IMVI melanoma) was 0.543 µM and 0.149 µM and the TGI (LOX IMVI melanoma) was 25.7 µM and 43.8 µM. The TGI (MOLT-4 leukemia) was 87.2 µM and > 91.5 µM, the TGI (NCI-H23 lung) was 24.8 µM and 15.1 µM and the TGI (PC-3 prostate) was 53 µM and 18.7 µM. For the same molecule, the GI50 (SK-MEL-2 melanoma) was 0.255 µM and 0.106 µM and the TGI (SK-MEL-2 melanoma) was 23.9 µM and > 54 µM.
